In US9550739B2, “Molecules having certain pesticidal utilities, and intermediates, compositions, and processes related thereto” (priority 2014, dated 2017):
Like-named read-outs stand apart in the source and are kept apart here.

Experiments:
Type in all cases: in vivo
[1] = system: Yellow Fever Mosquito (Aedes aegypti, AEDSAE) ("YFM"); settings: about 1 day-old larvae, 4000 ppm master solution diluted, 3 days, room temperature
Protocol: Certain molecules disclosed in this document were tested against YFM using procedures described in the following paragraph. In the reporting of the results, the “YFM Rating Table” was used (See Table Section).
Master plates containing 400 μg of a molecule dissolved in 100 μL of dimethyl sulfoxide (DMSO) (equivalent to a 4000 ppm solution) are used. A master plate of assembled molecules contains 15 μL per well. To this plate, 135 μL of a 90:10 water:acetone mixture is added to each well. A robot (Biomek® NXP Laboratory Automation Workstation) is programmed to dispense 15 μL aspirations from the master plate into an empty 96-well shallow plate (“daughter” plate). There are 6 reps (“daughter” plates) created per master. The created daughter plates are then immediately infested with YFM larvae.
The day before plates are to be treated, mosquito eggs are placed in Millipore water containing liver powder to begin hatching (4 g. into 400 mL). After the daughter plates are created using the robot, they are infested with 220 μL of the liver powder/larval mosquito mixture (about 1 day-old larvae). After plates are infested with mosquito larvae, a non-evaporative lid is used to cover the plate to reduce drying. Plates are held at room temperature for 3 days prior to grading. After 3 days, each well is observed and scored based on mortality.

[2] = system: Beet Armyworm (Spodoptera exigua, LAPHEG) ("BAW"); test: Bioassays on Beet Armyworm (BAW), 128-well diet tray assay; settings: Spodoptera exigua, 168 h, read-out: BAW % Control (or Mortality) rating
Protocol: (§1) Certain molecules disclosed in this document were tested against BAW and CEW using procedures described in the following examples. In the reporting of the results, the “BAW & CL Rating Table” was used (See Table Section).
Bioassays on BAW were conducted using a 128-well diet tray assay. one to five second instar BAW larvae were placed in each well (3 mL) of the diet tray that had been previously filled with 1 mL of artificial diet to which 50 μg/cm^2 of the test compound (dissolved in 50 μL of 90:10 acetone-water mixture) had been applied (to each of eight wells) and then allowed to dry. Trays were covered with a clear self-adhesive cover and held at 25° C., 14:10 light-dark for five to seven days. Percent mortality was recorded for the larvae in each well; activity in the eight wells was then averaged. The results are indicated in the table entitled “Table ABC: Biological Results” (See Table Section).

[3] = system: Cabbage Looper (Trichoplusia ni, TRIPNI) ("CL"); test: Bioassays on Cabbage Looper (CL), 128-well diet tray assay; settings: Trichoplusia ni, 168 h, read-out: CL % Control (or Mortality) rating
Protocol: as §1
Bioassays on CL were conducted using a 128-well diet tray assay. one to five second instar CL larvae were placed in each well (3 mL) of the diet tray that had been previously filled with 1 mL of artificial diet to which 50 μg/cm^2 of the test compound (dissolved in 50 μL of 90:10 acetone-water mixture) had been applied (to each of eight wells) and then allowed to dry. Trays were covered with a clear self-adhesive cover and held at 25° C., 14:10 light-dark for five to seven days. Percent mortality was recorded for the larvae in each well; activity in the eight wells was then averaged. The results are indicated in the table entitled “Table ABC: Biological Results” (See Table Section).

[4] = second instar BAW larvae, 50 μg/cm^2 on artificial diet, five to seven days, 25° C.

Compound: O=C(Nc1ccc(-c2ncn(-c3ccc(OC(F)(F)F)cc3)n2)cc1)c1cccc(-c2ccccc2OC(F)(F)F)c1 [F1, 2′-(Trifluoromethoxy)-N-(4-(1-(4-(trifluoromethoxy)phenyl)-1H-1,2,4-triazol-3-yl)phenyl)-[1,1′-biphenyl]-3-carboxamide]
- YFM % Control (or Mortality) rating [1]: D (No activity noticed in this bioassay)
- mortality at 50 µg/cm2 [2, 4]: 0%
- mortality at 50 µg/cm2 [3]: 50 to 100%

Compound: CCCN(C(=O)c1ccc(F)c(-c2ccccc2OC)c1)c1ccc(-c2ncn(-c3ccc(OC(F)(F)F)cc3)n2)cc1 [F65, 6-Fluoro-2′-methoxy-N-propyl-N-(4-(1-(4-(trifluoromethoxy)phenyl)-1H-1,2,4-triazol-3-yl)phenyl)-[1,1′-biphenyl]-3-carboxamide]
- YFM % Control (or Mortality) rating [1]: D (No activity noticed in this bioassay)
- mortality at 50 µg/cm2 [2, 4]: 50 to 100%
- mortality at 50 µg/cm2 [3]: 50 to 100%

Compound: O=C(Nc1ccc(-c2ncn(-c3ccc(OC(F)(F)F)cc3)n2)cc1)c1cc(-c2ccccc2)ccc1F [F48, 4-Fluoro-N-(4-(1-(4-(trifluoromethoxy)phenyl)-1H-1,2,4-triazol-3-yl)phenyl)-[1,1′-biphenyl]-3-carboxamide]
- YFM % Control (or Mortality) rating [1]: D (No activity noticed in this bioassay)
- mortality at 50 µg/cm2 [2, 4]: 0%
- mortality at 50 µg/cm2 [3]: 50 to 100%

Compound: CC(C)Oc1ccc(-n2cnc(-c3ccc(NC(=O)c4ccc(F)c(-c5ccccc5)c4)cc3)n2)cc1 [F16, 6-Fluoro-N-(4-(1-(4-isopropoxyphenyl)-1H-1,2,4-triazol-3-yl)phenyl)-[1,1′-biphenyl]-3-carboxamide]
- YFM % Control (or Mortality) rating [1]: B (More than 0-Less than 80)
- mortality at 50 µg/cm2 [2, 4]: 0%
- mortality at 50 µg/cm2 [3]: 50 to 100%

Compound: O=C(Nc1ccc(-c2ncn(-c3ccc(OC(F)(F)C(F)(F)F)cc3)n2)cc1)c1cccc(-c2ccccc2)n1 [F47, N-(4-(1-(4-(Perfluoroethoxy)phenyl)-1H-1,2,4-triazol-3-yl)phenyl)-6-phenylpicolinamide]
- YFM % Control (or Mortality) rating [1]: D (No activity noticed in this bioassay)
- mortality at 50 µg/cm2 [2, 4]: 0%
- mortality at 50 µg/cm2 [3]: 0%

Compound: Cc1ccccc1-c1cc(F)cc(C(=O)N(C)c2ccc(-c3ncn(-c4ccc(OC(F)(F)C(F)(F)F)cc4)n3)cc2)c1 [F29, 5-fluoro-N,2′-dimethyl-N-(4-(1-(4-(perfluoroethoxy)phenyl)-1H-1,2,4-triazol-3-yl)phenyl)-[1,1′-biphenyl]-3-carboxamide]
- YFM % Control (or Mortality) rating [1]: D (No activity noticed in this bioassay)
- mortality at 50 µg/cm2 [2, 4]: 50 to 100%
- mortality at 50 µg/cm2 [3]: 0%

Compound: O=C(Nc1ccc(-c2ncn(-c3ccc(OC(F)(F)C(F)(F)F)cc3)n2)cc1)c1cccc(-c2ccccc2)c1 [F45, N-(4-(1-(4-(perfluoroethoxy)phenyl)-1H-1,2,4-triazol-3-yl)phenyl)-[1,1′-biphenyl]-3-carboxamide]
- YFM % Control (or Mortality) rating [1]: D (No activity noticed in this bioassay)
- mortality at 50 µg/cm2 [2, 4]: 50 to 100%
- mortality at 50 µg/cm2 [3]: 50 to 100%

Compound: COc1ccccc1-c1cccc(C(=O)Nc2ccc(-c3ncn(-c4ccc(OC(C)C)cc4)n3)cc2)c1 [F5, N-(4-(1-(4-isopropoxyphenyl)-1H-1,2,4-triazol-3-yl)phenyl)-2′-methoxy-[1,1′-biphenyl]-3-carboxamide]
- YFM % Control (or Mortality) rating [1]: B (More than 0-Less than 80)
- mortality at 50 µg/cm2 [2, 4]: 50 to 100%
- mortality at 50 µg/cm2 [3]: 50 to 100%

Compound: O=C(Nc1ccc(-c2ncn(-c3ccc(C(F)(F)F)cc3)n2)cc1)c1ccc(F)c(-c2ccccc2)c1 [F62, 6-Fluoro-N-(4-(1-(4-(trifluoromethyl)phenyl)-1H-1,2,4-triazol-3-yl)phenyl)-[1,1′-biphenyl]-3-carboxamide]
- YFM % Control (or Mortality) rating [1]: B (More than 0-Less than 80)
- mortality at 50 µg/cm2 [2, 4]: 50 to 100%
- mortality at 50 µg/cm2 [3]: 50 to 100%

Compound: O=C(Nc1ccc(-c2ncn(-c3ccc(OC(F)(F)F)cc3)n2)cc1)c1cc(F)cc(-c2ccccc2)c1 [F25, 5-Fluoro-N-(4-(1-(4-(trifluoromethoxy)phenyl)-1H-1,2,4-triazol-3-yl)phenyl)-[1,1′-biphenyl]-3-carboxamide]
- YFM % Control (or Mortality) rating [1]: D (No activity noticed in this bioassay)
- mortality at 50 µg/cm2 [2]: 50 to 100%
- mortality at 50 µg/cm2 [3]: 50 to 100%

Compound: COc1ccc(-c2cccc(C(=O)Nc3ccc(-c4ncn(-c5ccc(OC(F)(F)F)cc5)n4)cc3)c2)c(C)c1 [F49, 4′-Methoxy-2′-methyl-N-(4-(1-(4-(trifluoromethoxy)phenyl)-1H-1,2,4-triazol-3-yl)phenyl)-[1,1′-biphenyl]-3-carboxamide]
- YFM % Control (or Mortality) rating [1]: B (More than 0-Less than 80)
- mortality at 50 µg/cm2 [2, 4]: 50 to 100%
- mortality at 50 µg/cm2 [3]: 50 to 100%

Compound: COc1ccccc1-c1cc(C(=O)N(CC2CC2)c2ccc(-c3ncn(-c4ccc(OC(F)(F)F)cc4)n3)cc2)ccc1F [F66, N-(cyclopropylmethyl)-6-fluoro-2′-methoxy-N-(4-(1-(4-(trifluoromethoxy)phenyl)-1H-1,2,4-triazol-3-yl)phenyl)-[1,1′-biphenyl]-3-carboxamide]
- YFM % Control (or Mortality) rating [1]: D (No activity noticed in this bioassay)
- mortality at 50 µg/cm2 [2, 4]: 50 to 100%
- mortality at 50 µg/cm2 [3]: 50 to 100%

Compound: CN(C)c1ccccc1-c1cccc(C(=O)NCCc2ccc(-c3ncn(-c4ccc(OC(F)(F)F)cc4)n3)cc2)c1 [F52, 2′-(Dimethylamino)-N-(4-(1-(4-(trifluoromethoxy)phenyl)-1H-1,2,4-triazol-3-yl)phenethyl)-[1,1′-biphenyl]-3-carboxamide]
- YFM % Control (or Mortality) rating [1]: A (80-100)
- mortality at 50 µg/cm2 [2, 4]: 50 to 100%
- mortality at 50 µg/cm2 [3]: 50 to 100%

Compound: CC(=O)c1ccccc1-c1cccc(C(=O)Nc2ccc(-c3ncn(-c4ccc(OC(F)(F)F)cc4)n3)cc2)c1 [F41, 2′-Acetyl-N-(4-(1-(4-(trifluoromethoxy)phenyl)-1H-1,2,4-triazol-3-yl)phenyl)-[1,1′-biphenyl]-3-carboxamide]
- YFM % Control (or Mortality) rating [1]: A (80-100)
- mortality at 50 µg/cm2 [2, 4]: 50 to 100%
- mortality at 50 µg/cm2 [3]: 50 to 100%

Compound: Cc1ccccc1-c1cc(C(=O)NCCc2ccc(-c3ncn(-c4ccc(OC(F)(F)F)cc4)n3)cc2)ccc1F [F53, 6-Fluoro-2′-methyl-N-(4-(1-(4-(trifluoromethoxy)phenyl)-1H-1,2,4-triazol-3-yl)phenethyl)-[1,1′-biphenyl]-3-carboxamide]
- YFM % Control (or Mortality) rating [1]: A (80-100)
- mortality at 50 µg/cm2 [2, 4]: 50 to 100%
- mortality at 50 µg/cm2 [3]: 50 to 100%

Compound: COc1ccccc1-c1cccc(C(=S)Nc2ccc(-c3ncn(-c4ccc(OC(F)(F)C(F)(F)F)cc4)n3)cc2)c1 [F23, 2′-methoxy-N-(4-(1-(4-(perfluoroethoxy)phenyl)-1H-1,2,4-triazol-3-yl)phenyl)-[1,1′-biphenyl]-3-carbothioamide]
- YFM % Control (or Mortality) rating [1]: A (80-100)
- mortality at 50 µg/cm2 [2, 4]: 50 to 100%
- mortality at 50 µg/cm2 [3]: 50 to 100%

Compound: COc1ccccc1-c1cccc(C(=O)N(C)c2ccc(-c3ncn(-c4ccc(OC(F)(F)F)cc4)n3)cc2)c1 [F19, 2′-methoxy-N-methyl-N-(4-(1-(4-(trifluoromethoxy)phenyl)-1H-1,2,4-triazol-3-yl)phenyl)-[1,1′-biphenyl]-3-carboxamide]
- YFM % Control (or Mortality) rating [1]: A (80-100)
- mortality at 50 µg/cm2 [2, 4]: 50 to 100%
- mortality at 50 µg/cm2 [3]: 50 to 100%

Compound: O=C(NCCc1ccc(-c2ncn(-c3ccc(OC(F)(F)F)cc3)n2)cc1)c1ccc(F)c(-c2ccccc2)c1 [F51, 6-Fluoro-N-(4-(1-(4-(trifluoromethoxy)phenyl)-1H-1,2,4-triazol-3-yl)phenethyl)-[1,1′-biphenyl]-3-carboxamide]
- YFM % Control (or Mortality) rating [1]: D (No activity noticed in this bioassay)
- mortality at 50 µg/cm2 [2, 4]: 50 to 100%
- mortality at 50 µg/cm2 [3]: 0%

Compound: Cc1ccccc1-c1cc(F)cc(C(=O)Nc2ccc(-c3ncn(-c4ccc(OC(F)(F)F)cc4)n3)cc2)c1 [F39, 5-Fluoro-2′-methyl-N-(4-(1-(4-(trifluoromethoxy)phenyl)-1H-1,2,4-triazol-3-yl)phenyl)-[1,1′-biphenyl]-3-carboxamide]
- YFM % Control (or Mortality) rating [1]: D (No activity noticed in this bioassay)
- mortality at 50 µg/cm2 [2, 4]: 50 to 100%
- mortality at 50 µg/cm2 [3]: 50 to 100%
